These results are taken from patent publication US10703748B2, “Diazanaphthalen-3-yl carboxamides and preparation and use thereof” (Samumed, LLC, priority 2017, dated 2020).

One may read the EC50 as the concentration that produces a half-maximal response.

Some results are limits rather than exact numbers.

The subject of assay [1] is Wnt-responsive Sp5-Luc reporter in SW480 colon carcinoma cells. Description: Screening assay for Wnt activity (Sp5-Luc reporter gene assay). To be noted: Homo sapiens; for EC50: SW480; for inhibition at 10 µM: SW480, read-out: percent inhibition at 10 μM. A general note: In a reporter assay the amount or activity of a reporter protein is the signal.
Assay [2] relates to α-smooth muscle actin (aSMA) positive LL29 cells. Description: Inhibition of the fibrotic process: αSMA staining in TGF-β1 treated LL29 fibroblasts from IPF patients. To be noted: Homo sapiens, Fibroblast; for EC50: 96 h; for inhibition at 10 µM: read-out: percentage in parentheses after EC50 >10.
Procedure: Each compound was dissolved in DMSO as a 10 mM stock and used to prepare compound source plates. […] LL29 cells were plated at 1,500 cells/well in 70 μL/well F12 medium supplemented with 1% Fetal Bovine Serum. […] Wells treated with TGF-β1 and containing DMSO were used as positive control, and cells with only DMSO were negative control. Cells were incubated at 37° C. and 5% CO2 for 4 days. Following incubation for 4 days, SYTOX green nucleic acid stain (Life Technologies [Thermo Fisher Scientific]) was added to the wells at a final concentration of 1 μM and incubated at room temperature for 30 min. Cells were then fixed using 4% formaldehyde (Electron Microscopy Sciences), washed 3 times with PBS followed by blocking and permeabilization using 3% Bovine Serum Albumin (BSA; Sigma) and 0.3% Triton X-100 (Sigma) in PBS.
The target in the next assay is GSK3β kinase (Homo sapiens, UniProt P49841). Description: GSK3β kinase activity (Ser/Thr 09 peptide Z-lyte FRET assay). Type of assay: biochemical. To be noted: recombinant kinase, 46 μM ATP, one hour at room temperature; read-out: EC50.
The next assay has as its target DYRK1A kinase (Homo sapiens, UniProt Q13627). Put plainly: DYRK1A kinase activity (Ser/Thr 18 peptide Z-lyte FRET assay).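 Also: kinase activity read as coumarin/fluorescein emission ratio after development step, with unphosphorylated and phosphorylated peptide forms setting 0% and 100% controls, values from dose-response curves.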 Type of assay: biochemical. To be noted: recombinant DYRK1A, 30 μM ATP, one hour at room temperature.
In assay [3] the test system is SW480 colon carcinoma cells. Description: Cell viability assay (CellTiter-Glo). To be noted: Homo sapiens; for EC50: SW480, 96 h; for inhibition at 10 µM: SW480, read-out: percent inhibition at 10 μM.
The next assay has as its system IL-6. Put plainly: IL-6 inhibition in LPS-stimulated human peripheral blood mononuclear cells (HTRF). To be noted: Homo sapiens, PBMC; for EC50: 22 h; for inhibition at 10 µM: read-out: percentage in parentheses after EC50 >10. Background: TR-FRET usually uses a lanthanide donor and a delayed reading to cut background.
For assay [4], the system named is secreted cytokines TNFα, IL-6 and KC-GRO. Description: Secreted cytokines in Lipopolysaccharide-stimulated BV-2 cells (Table 9 does not say which cytokine). Type of assay: cell-based, mouse. The settings on record: Mus musculus, BV-2, 5 h; read-out: EC50.
Procedure: BV-2 cells (mouse microglial cells) were cultured in 1:1 DMEM medium supplemented with 10% FBS, and 1% penicillin/streptomycin.
BV-2 cells are plated at 35,000 cells/well in a volume of 100 μl for at least 4 hours before compounds are added. […] Compounds were added to cells overnight. […] Supernatant is removed and saved for further cytokine detection. The original plates with seeded cells were tested for cytotoxicity by measure of adenosine triphosphate (ATP) release by adding CellTiter-Glo® diluted 1:4 in distilled water (G7573, Promega) and transferring lysed cells to a completely black 96-well plate to be read with the Cytation3. Supernatant was then diluted 1:2 with a diluent from V-PLEX cytokine Kit and directly tested for the secreted cytokines TNFα, IL-6 and KC-GRO using electrochemiluminescence (Meso Scale Discovery). The standard curve for each cytokine was used to convert the electrochemiluminescent signal into pg of protein per mL.
The subject of assay [5] is Tau phosphorylation at Ser396 (pSer396). Put plainly: Tau phosphorylation at Ser396 (pSer396) in SH-SY5Y cells, ELISA / western blot.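 Also: decrease in pSer396 Tau measured in lysates of treated cells by colorimetric ELISA or chemiluminescent western blot, same pSer396 antibody for both.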 Type of assay: cell-based, human. The settings on record: Homo sapiens; SH-SY5Y cells, overnight (16-18 h); read-out: pSer396 Tau EC50. (An ELISA detects its analyte on a solid surface through an enzyme-linked reagent.)
Procedure: Two days before treatment, cells were seeded onto 96 well plates at 5×10^4 cells/well.
The above synthesized compounds were screened using the cell assay procedure to assess decrease Tau phosphorylation at Ser396 (pSer396) described below.
Cells were lysed with RIPA buffer complemented with phosphatase and protease inhibitors then lysates were spun down at 12,000 g for 10 min to remove any cellular debris.

Sequence of GSK3β kinase (P49841 whole entry): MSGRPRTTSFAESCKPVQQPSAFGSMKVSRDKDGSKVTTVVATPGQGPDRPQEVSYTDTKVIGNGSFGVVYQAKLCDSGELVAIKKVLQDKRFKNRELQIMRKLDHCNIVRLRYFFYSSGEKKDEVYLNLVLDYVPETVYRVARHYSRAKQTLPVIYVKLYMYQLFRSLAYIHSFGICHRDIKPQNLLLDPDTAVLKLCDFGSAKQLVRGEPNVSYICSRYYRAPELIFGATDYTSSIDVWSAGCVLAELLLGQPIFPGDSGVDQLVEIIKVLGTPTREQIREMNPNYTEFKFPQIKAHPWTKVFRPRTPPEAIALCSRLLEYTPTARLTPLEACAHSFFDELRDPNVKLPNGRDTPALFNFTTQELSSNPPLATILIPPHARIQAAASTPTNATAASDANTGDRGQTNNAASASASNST

As for `Cn1ncc(-c2cnc3cnc(NC(=O)C4CC5(C4)CN(CCF)C5)cc3c2)c1CN1CCCCC1` [Compound 3000, 2-(2-Fluoroethyl)-N-(3-(1-methyl-5-(piperidin-1-ylmethyl)-1H-pyrazol-4-yl)-1,7-naphthyridin-6-yl)-2-azaspiro[3.3]heptane-6-carboxamide], the concentration for a half-maximal effect (EC50) in assay [1] was 1950 nM; in assay [2], 9890 nM; on GSK3β kinase it was 166 nM; on DYRK1A kinase it was 10 nM; in assay [3], 5.95 µM; in the assay on IL-6 it was 2.27 µM. The half-maximal effective concentration (EC50) in assay [4] was found to be 307 nM; in assay [5], 1830 nM.

For `Cn1cc(-c2ccc3cnc(NC(=O)C4CCN(Cc5ncccn5)CC4)nc3c2)cn1` [Compound 1007, N-(7-(1-methyl-1H-pyrazol-4-yl)quinazolin-2-yl)-1-(pyrimidin-2-ylmethyl)piperidine-4-carboxamide], the EC50 was over 10000 nM in assay [1]; over 10000 nM in assay [2]; 349 nM at GSK3β kinase; 106 nM on DYRK1A kinase; over 10 µM in assay [3]; over 10 µM in the assay with IL-6. Further, the EC50 in assay [4] was 1800 nM; in assay [5] it was over 10000 nM. Besides, the inhibition at 10 µM in assay [1] came out at 14.6%; in assay [2], 39.7%; in assay [3], 17.9%; in the assay on IL-6 it was 2.4%.

Regarding `Cn1cc(-c2cc3cc(NC(=O)C4CC4)ncc3cn2)cn1` [Compound 3629, N-(6-(1-Methyl-1H-pyrazol-4-yl)-2,7-naphthyridin-3-yl) cyclopropanecarboxamide], the EC50 in assay [1] stood at 396 nM; in assay [2], 97 nM; on GSK3β kinase, 2 nM; at DYRK1A kinase, 7 nM; in assay [3], 0.951 µM; in the assay with IL-6 it was 2.77 µM. For the same molecule, the values for the EC50 in assay [4] and in assay [5] were 5700 nM and 21 nM, respectively.

In the case of `Cn1cc(-c2cc3cc(NC(=O)C4CCN(CCC(F)(F)F)CC4)ncc3cn2)cn1` [Compound 3646, N-(6-(1-Methyl-1H-pyrazol-4-yl)-2,7-naphthyridin-3-yl)-1-(3,3,3-trifluoropropyl)piperidine-4-carboxamide], the half-maximal effective concentration (EC50) was 219 nM in assay [1]; over 10000 nM in assay [2]; 4 nM at GSK3β kinase; 2 nM at DYRK1A kinase; 9.58 µM in assay [3]; 9.04 µM with IL-6. Besides, the values for the EC50 in assay [4] and in assay [5] were over 10000 nM and 79 nM, respectively. In addition, in assay [2], the inhibition at 10 µM was determined as 12.9%.

Take `O=C(Nc1cc2cc(-c3cnco3)cnc2cn1)C1CCN(C(=O)CN2CCCC2)CC1` [Compound 3249, N-(3-(Oxazol-5-yl)-1,7-naphthyridin-6-yl)-1-(2-(pyrrolidin-1-yl)acetyl)piperidine-4-carboxamide]: the EC50 was over 10000 nM in assay [1]; 7060 nM in assay [2]; 6120 nM at GSK3β kinase; 26 nM on DYRK1A kinase; over 10 µM in assay [3]; 8.32 µM in the assay on IL-6. Besides, the figures for the EC50 in assay [4] and in assay [5] were 1200 nM and 10000 nM, respectively. The inhibition at 10 µM in assay [1] worked out at 31.5%; in assay [3], 26.7%.

Turning to `Cn1cc(-c2cc3cc(NC(=O)CC4CNCCO4)ncc3cn2)cn1` (stereo not drawn) [Compound 3714, N-(6-(1-Methyl-1H-pyrazol-4-yl)-2,7-naphthyridin-3-yl)-2-(morpholin-2-yl) acetamide], the EC50 was found to be 845 nM in assay [1]; 1540 nM in assay [2]; 8 nM at GSK3β kinase; 10 nM on DYRK1A kinase; 6.02 µM in assay [3]; 5.7 µM in the assay on IL-6. Also, the figures for the EC50 in assay [4] and in assay [5] were 1620 nM and 210 nM, respectively.

As to `Cn1cc(-c2ccc3cnc(NC(=O)[C@H]4CC[C@H](N)CC4)cc3n2)cn1` [Compound 41, trans-4-amino-N-(2-(1-methyl-1H-pyrazol-4-yl)-1,6-naphthyridin-7-yl)cyclohexane-1-carboxamide], the EC50 in assay [1] is 1310 nM; in assay [2], 663 nM; at GSK3β kinase, 429 nM; at DYRK1A kinase it was 10 nM; in assay [3], over 10 µM; with IL-6, 2.77 µM. In addition, the EC50 in assay [4] is 408 nM; in assay [5] it was over 10000 nM. For the same molecule, the inhibition at 10 µM in assay [3] was 31.8%.

With `O=C(Nc1cc2cc(-c3cnco3)cnc2cn1)[C@H]1CC[C@H](CO)CC1` [Compound 4610], the EC50 in assay [1] was over 10000 nM; in assay [2], 4190 nM; on GSK3β kinase it was over 10000 nM; on DYRK1A kinase it was 29 nM; in assay [3], over 10 µM; with IL-6, over 10 µM. For the same molecule, the half-maximal effective concentration (EC50) is 261 nM in assay [4] and over 10000 nM in assay [5]. The inhibition at 10 µM in assay [1] turned out to be 9.1%; in assay [3], 24.6%; with IL-6, 10.3%.

Consider `CN(C)[C@H]1CC[C@H](C(=O)Nc2ncc3ccc(-c4cncs4)cc3n2)CC1` [Compound 1518, trans-4-(Dimethylamino)-N-(7-(thiazol-5-yl)quinazolin-2-yl)cyclohexane-1-carboxamide], for which the EC50 in assay [1] is over 10000 nM; in assay [2] it was 2610 nM; on GSK3β kinase, 253 nM; at DYRK1A kinase it was 14 nM; in assay [3] it was over 10 µM; in the assay on IL-6, over 10 µM. In addition, the concentration for a half-maximal effect (EC50) in assay [4] was determined as 1080 nM; in assay [5], 5400 nM. Further, the inhibition at 10 µM in assay [1] is 24.8%; in assay [3] it was 25.3%; in the assay on IL-6, 30.1%.

Turning to `CN1CCN(Cc2cccc(C(=O)Nc3cc4cc(-c5cnn(C)c5)ncc4cn3)c2)CC1` [Compound 3799, N-(6-(1-Methyl-1H-pyrazol-4-yl)-2,7-naphthyridin-3-yl)-3-((4-methylpiperazin-1-yl)methyl)benzamide], the EC50 was 2120 nM in assay [1]; 2580 nM in assay [2]; 243 nM on GSK3β kinase; 12 nM on DYRK1A kinase; 3.66 µM in assay [3]; over 10 µM in the assay on IL-6. The concentration giving a half-maximal response (EC50) in assay [4] is 79 nM; in assay [5] it was 3640 nM. Besides, the inhibition at 10 µM with IL-6 was determined as 5.3%.

`Cn1cc(-c2ccc3cnc(NC(=O)CC4CNCCO4)cc3n2)cn1` (stereo not drawn) [Compound 86, N-(2-(1-Methyl-1H-pyrazol-4-yl)-1,6-naphthyridin-7-yl)-2-(morpholin-2-yl)acetamide]: the concentration for a half-maximal effect (EC50) in assay [1] is 1890 nM; in assay [2], 1890 nM; at GSK3β kinase it was 68 nM; on DYRK1A kinase, 12 nM; in assay [3] it was 3.61 µM; in the assay with IL-6, 1.02 µM. In addition, the half-maximal effective concentration (EC50) came to 201 nM in assay [4] and 1000 nM in assay [5].

With `Cn1cc(-c2ccc3cnc(NC(=O)C4CCN(CC5(C(F)(F)F)CC5)CC4)nc3c2)nn1` [Compound 1253, N-(7-(1-Methyl-1H-1,2,3-triazol-4-yl)quinazolin-2-yl)-1-((1-(trifluoromethyl)cyclopropyl)methyl)piperidine-4-carboxamide], the EC50 in assay [1] was 1180 nM; in assay [2], over 10000 nM; on GSK3β kinase, 15 nM; on DYRK1A kinase, 13 nM; in assay [3], over 10 µM; in the assay with IL-6, over 10 µM. The EC50 was over 10000 nM in assay [4] and 188 nM in assay [5]. Also, the inhibition at 10 µM in assay [2] was found to be 47.2%; in assay [3], 17.1%; with IL-6, 4.4%.

Regarding `Cn1ncc(-c2cc3cc(NC(=O)C4CC5(C4)CN(CCF)C5)ncc3cn2)c1CN1CCCCC1` [Compound 3907, 2-(2-Fluoroethyl)-N-(6-(1-methyl-5-(piperidin-1-ylmethyl)-1H-pyrazol-4-yl)-2,7-naphthyridin-3-yl)-2-azaspiro[3.3]heptane-6-carboxamide], the EC50 in assay [1] was found to be 361 nM; in assay [2], 1820 nM; on GSK3β kinase it was 39 nM; on DYRK1A kinase, 48 nM; in assay [3] it was 1.29 µM; with IL-6, 8.81 µM. In addition, the EC50 came to 4700 nM in assay [4] and 367 nM in assay [5].

For the molecule `Cc1ncc(-c2ccc3cnc(NC(=O)N4CCOCC4)cc3n2)s1` [Compound 634, N-(2-(2-Methylthiazol-5-yl)-1,6-naphthyridin-7-yl)morpholine-4-carboxamide], the EC50 in assay [1] is 8610 nM; in assay [2], 2130 nM; on GSK3β kinase it was 1150 nM; at DYRK1A kinase it was 29 nM; in assay [3], over 10 µM; in the assay with IL-6, over 10 µM. Further, the EC50 in assay [4] was 542 nM; in assay [5], 7900 nM. Besides, the inhibition at 10 µM came to 41.2% in assay [3] and 13% in the assay on IL-6.

`CC(C(=O)Nc1cc2cc(-c3cnn(C)c3)ncc2cn1)N1CCCCC1` (stereo not drawn) [Compound 3698, N-(6-(1-Methyl-1H-pyrazol-4-yl)-2,7-naphthyridin-3-yl)-2-(piperidin-1-yl) propanamide]: the EC50 was 288 nM in assay [1]; 1070 nM in assay [2]; 9 nM at GSK3β kinase; 64 nM at DYRK1A kinase; 6.9 µM in assay [3]; over 10 µM with IL-6. In addition, the EC50 was determined as 4800 nM in assay [4] and 76 nM in assay [5]. In addition, the inhibition at 10 µM in the assay on IL-6 was determined as 4.6%.
